Measured values as given in patent publication US20060189811A1, “Process for producing 1,2,4-triazole compound and intermediate therefor” (FUJIYAKUHIN CO., LTD., priority 2004, published 2006).

Test system: serum uric acid level
Assay: Serum uric acid level-lowering action
Assay type: in vivo
Settings: male wister rats, oral 0.3 mg/5 mL/Kg in 0.5% MC, blood collected six hours after administration, vs MC group
Protocol: Serum Uric Acid Level-Lowering Action
To male wister rats of 7 weeks old (4 rats per group) was orally administered compulsorily a test substance suspended in 0.5% aqueous solution of methyl cellulose (MC) in such an amount as to provide 0.3 mg/5 mL/Kg by using a stomach sonde. Six hours after the administration of the test substance, a blood sample was collected from the orbital vein. After allowing to stand at room temperature for 1 hour, the blood sample was centrifuged at 2000×g for 10 minutes to collect serum. […] Lowering rate of serum uric acid level (%)=(1-average serum uric acid level of the group administered with test compound/average serum uric acid level of the group administered with MC)×100

With `Cc1ccc(S(=O)(=O)O)cc1.N#Cc1cc(-c2nc(-c3ccncc3)n[nH]2)ccn1` [Example 2, 5-(2-cyano-4-pyridyl)-3-(4-pyridyl)-1,2,4-triazole p-toluenesulfonate] the “Lowering rate of serum uric acid level” value was 51.1%.
